Test results published in PMC12072147, “Antioxidant and Neuroprotective Properties of Selected Pyrrole-Containing Azomethine Compounds in Neurotoxicity Models In Vitro” (International Journal of Molecular Sciences, 2025).

Tests used:
[1] = tested on: isolated rat brain synaptosomes; test: 6-OHDA-induced neurotoxicity in isolated rat brain synaptosomes; format: cell-based; details: for preserved GSH levels in synaptosomes / viability at 100 µM: 100 µM compound + 150 µM 6-OHDA; for preserved GSH levels in synaptosomes: compared to the 6-OHDA group; for viability at 100 µM: Rattus norvegicus, compared to 6-OHDA alone, read-out: preserved synaptosomal viability
Protocol: Synaptosomes and mitochondria were isolated by subcellular fractionation using a Percoll gradient, following the method described by Tauplin et al. and Sims et al.. Brain homogenate was prepared and centrifuged at 1000× g for 5 min at 4 °C. The supernatants were collected and centrifuged again at 1000× g for 5 min at 4 °C. The supernatants from both centrifugations were combined and distributed into four tubes. These tubes were then centrifuged at 10,000× g for 20 min at 4 °C three times. The final two centrifugations were performed to purify the synaptosomes and mitochondria.
The isolation process involves using a colloidal silicon solution, specifically Percoll. First, a 90% stock solution of Percoll is prepared. Next, Percoll solutions at concentrations of 16% and 10% are prepared, with 4 mL of each solution placed into six separate test tubes. To the precipitate from the final centrifugation step, 7.5% Percoll (derived from the 90% stock solution) is added. The tubes are then centrifuged at 15,000× g for 20 min at 4 °C. This procedure effectively isolates synaptosomes and mitochondria. After centrifugation, three distinct layers form in the tubes. The bottom layer contains mitochondria, the top layer contains lipids, and the middle layer—located at the 16% to 10% Percoll interface—contains synaptosomes. The corresponding layer from each tube is carefully removed using a glass Pasteur pipette and combined into one. Buffer B with glucose is then added to the mixture, which is centrifuged at 10,000 × g for 20 min at 4 °C, allowing the isolation buffer to be exchanged with the incubation buffer. After centrifugation, the pellet containing the synaptosomes is resuspended in Buffer B with glucose. Synaptosomes and mitochondria were incubated with the test substances at a concentration of 100 µM for 1 h.
This in vitro model mimics the neurodegenerative processes primarily observed in Parkinson’s disease (PD). The metabolism of 6-OHDA produces reactive quinones (p-quinone), which, in turn, generate reactive oxygen species (ROS). These reactive metabolites and ROS cause damage to both pre- and post-synaptic membranes, ultimately leading to neuronal cell damage. In this study, synaptosomes were incubated with 6-OHDA (150 μM) for 1 h to establish the model.
After a 1-h incubation with the substances and toxic agent, synaptosomes were centrifuged in a microcentrifuge at 15,000× g for 1 min. The pellet was gently mixed with Buffer B + glucose, and the supernatant containing 6-OHDA was discarded to prevent oxidation of 3-(4,5-dimethylthiazol-2-yl)-2,5-diphenyltetrazolium bromide, a tetrazole (MTT). The synaptosomes were centrifuged again at 15,000× g for 1 min. After the second wash, Buffer B + glucose was added to the pellet. Then, 60 µL of MTT solution was added to the “washed” synaptosomes. The plates were incubated with the MTT solution at 37 °C for 10 min. After incubation, the samples were centrifuged at 15,000× g for 2 min. The excess liquid was removed, and a DMSO solution was used to dissolve the formed formazan crystals. The amount of formazan was then measured spectrophotometrically at λ = 580 nm.
Following protein precipitation with trichloroacetic acid, the thiol groups in the supernatant were measured using DTNB, which produces a yellow-colored compound that absorbs light at λ = 412 nm. After incubation, synaptosomes were centrifuged at 4000× g for 3 min. The supernatant was removed, and the pellet was collected for GSH determination. The pellet was treated with 5% trichloroacetic acid and left on ice for 10 min. It was then centrifuged at 8000× g for 10 min at 2 °C. The supernatant was collected for GSH determination and frozen at −20 °C. Immediately before measurement, the samples were neutralized with 5N NaOH [50].

[2] = tested on: isolated rat brain microsomes; test: In vitro toxicity (prooxidant effect, MDA) on isolated rat brain microsomes; format: biochemical; details: 100 µM, vs untreated control microsomes
Protocol: (§1) The brain was homogenized in 9 volumes of 0.1 M Tris buffer containing 0.1 mM dithiothreitol, 0.1 mM phenylmethylsulfonyl fluoride, 0.2 mM EDTA, 1.15% KCl, and 20% (v/v) glycerol (pH 7.4). The resulting homogenate was centrifuged twice at 17,000× g for 30 min. The supernatants from both centrifugation steps were combined and centrifuged twice at 100,000× g for 1 h. The pellet was then frozen in 0.1 M Tris buffer.
(§2) After incubating the microsomes with the substances and toxic agent, the reaction was stopped by adding 0.5 mL of 20% trichloroacetic acid, followed by 0.5 mL of 0.67% thiobarbituric acid. The reaction formed a colored complex between the malondialdehyde produced and thiobarbituric acid. The amount of malondialdehyde (MDA) was measured spectrophotometrically at 535 nm, using a molar extinction coefficient of 1.56 × 10^5 M^−1 cm^−1 for the calculation.

[3] = tested on: SH-SY5Y cells; test: In vitro cytotoxicity in neuroblastoma cell line SH-SY5Y (MTT); format: cell-based; details: Homo sapiens, 24 h treatment, 0.1-500 µM, read-out: IC50 (cell viability)
Protocol: (§3) The neuroblastoma cell line SH-SY5Y was acquired from Sigma-Aldrich (ACACC cell lines). They were cultured in Roswell Park Memorial Institute 1640 (RPMI) cell medium supplemented with 10% heat-inactivated fetal bovine serum (FBS) and 2 mM L-glutamine. The cells were maintained at 37 °C in an atmosphere containing 5% CO2 in a humidified incubator.
SH-SY5Y cells were seeded in 96-well plates at a density of 2.5 × 10^4 cells/well. The plates were incubated for 24 h to ensure proper attachment. Cell viability assays were performed after treatment with the test compounds at concentrations of 0.1, 1, 5, 10, 50, 100, 250, and 500 μM, according to the protocol of Mosmann (1984). Each compound was tested in 6 wells. Following the treatment for 24 h, a solution of (3-(4,5-dimethylthiazol-2-yl)-2,5-diphenyltetrazolium bromide) MTT at a concentration of 5 mg/mL was prepared and briefly vortexed. The culture medium was aspirated and replaced with 100 μL of MTT solution in each well. The plates were then incubated for 3 h. After incubation, the formazan crystals were dissolved using 100 μL dimethylsulphoxide (DMSO), and the absorbance was measured at 570 nm (690 nm for the background absorbance) using a multiple reader Synergy 2 (BioTek Instruments, Inc., Highland Park, Winooski, VT, USA).

[4] = tested on: isolated rat brain microsomes; test: Non-enzyme (Fe2+/AA) lipid peroxidation in isolated rat brain microsomes; format: biochemical; details: 100 µM compound co-incubated with Fe2+/AA, compared to the Fe2+/AA group
Protocol: as §1
Non-enzyme-induced lipid peroxidation was induced with 20 μM ferrous sulfate solution and 0.5 mM ascorbic acid solution [54].
as §2

[5] = tested on: SH-SY5Y cells; test: H2O2-induced oxidative stress model in neuroblastoma SH-SY5Y cells; format: cell-based, human; details: H2O2 1 mM 10 min
Protocol: as §3
In the oxidative stress model, SH-SY5Y cells (3.5 × 10^4 cells/well) were exposed to 1 mM H2O2 for 10 min. The cells were pre-treated for 1.5 h with the test compounds (0.1, 1, 5, 10, 20, and 50 µM). Subsequently, a H2O2 solution was added. Cell viability was assessed after 24 h by the MTT-dye reduction assay, as described above.
The results of the experiments performed on isolated brain synaptosomes, mitochondria, and microsomes were statistically processed using the ‘MEDCALC’ program using the non-parametric Mann–Whitney method at significance levels of p < 0.05, p < 0.01, and p < 0.001. Statistical analyses with the SH-SY5Y cell line were conducted on GraphPad Prism software (version 8, GraphPad Software, La Jolla, CA, USA). The significance of the data was assessed using one-way analysis of variance (ANOVA), followed by Dunnet’s test for post hoc multiple comparisons, to evaluate statistical differences. Values of * p ≤ 0.05, ** p ≤ 0.01, and *** p ≤ 0.001 were considered statistically significant. Cytoprotecting data were normalized as a percentage of the H2O2-treated control (defined as 0% viability). Statistical analysis was performed to compare the different groups of compounds. Statistical significance was determined using the Holm–Sidak method, with alpha = 0.05. Each row was analyzed individually, without assuming a consistent SD.

[6] = tested on: isolated brain mitochondria; test: t-BuOOH-induced oxidative stress in brain mitochondria; details: 100 µM compound + t-BuOOH, compared to t-BuOOH alone
[7] = 150 µM applied alone, vs untreated synaptosomes

| SMILES | decrease in synaptosomal viability by toxic agent alone [1, 7] | reduction in GSH levels by toxic agent alone [1, 7] | increase in MDA formation in microsomes [2] | IC50 [3] | preserved GSH levels in synaptosomes [1] | viability at 100 µM [1] | decrease of MDA production in microsomes [4] | protective effect (neuroprotection) ([5]; 5 µM pre-treatment 1.5 h) | protective effect (neuroprotection) ([5]; 10 µM pre-treatment 1.5 h) | reduction of MDA production in mitochondria [6] | protective effect (neuroprotection) ([5]; 20 µM pre-treatment 1.5 h) | protective effect (neuroprotection) ([5]; 50 µM pre-treatment 1.5 h) |
| --- | --- | --- | --- | --- | --- | --- | --- | --- | --- | --- | --- | --- |
| NCCc1cc(O)c(O)cc1O [6-OHDA, 6-hydroxydopamine, reference compound] | 55% | 50% |  |  |  |  |  |  |  |  |  |  |
| CCOC(=O)c1cc(-c2ccc(Br)cc2)n(C(Cc2c[nH]c3ccccc23)C(=O)N/N=C/c2cc(OC)c(O)c(OC)c2)c1C (centres unmarked) [compound 7] |  |  | 29% | > 500 µM | 70% | 73% | 38% |  |  |  |  |  |
| CCOC(=O)c1cc(-c2ccc(Br)cc2)n(C(Cc2c[nH]c3ccccc23)C(=O)N/N=C/c2ccc(NC(C)=O)cc2)c1C (centres unmarked) [compound 9] |  |  | 38% | > 500 µM | 60% | 78% | 26% | 47% | 52% |  |  |  |
| CCOC(=O)c1cc(-c2ccc(Br)cc2)n(C(Cc2c[nH]c3ccccc23)C(=O)N/N=C/c2ccc([N+](=O)[O-])o2)c1C (centres unmarked) [compound 11] |  |  | 41% | 264 µM | 60% | 69% | 35% |  |  | 41% |  |  |
| CCOC(=O)c1cc(-c2ccc(Br)cc2)n(C(Cc2c[nH]c3ccccc23)C(=O)N/N=C/c2ccccc2O)c1C (centres unmarked) [compound 12] |  |  | 35% | > 500 µM | 80% | 82% | 40% | 48% | 53% |  | 50% | 32% |
| CCOC(=O)c1cc(-c2ccc(Br)cc2)n(C(Cc2c[nH]c3ccccc23)C(=O)N/N=C/c2ccc3ccccc3c2)c1C (centres unmarked) [compound 14] |  |  | 39% | > 500 µM | 70% | 60% | 37% | 33% | 51% |  |  |  |
| CCOC(=O)c1cc(-c2ccc(Br)cc2)n(C(Cc2c[nH]c3ccccc23)C(=O)N/N=C/c2c3ccccc3cc3ccccc23)c1C (centres unmarked) [compound 15] |  |  | 40% | > 500 µM | 70% | 64% | 36% |  |  |  |  |  |
